Earlier results in patent publication US6235494A, “Substrates for assessing mannan-binding protein-associated serine protease activity and methods using the substrates” (The Scripps Research Institute, priority 1999, dated 2001).

Experiments:
[1] = system: kallikrein (plasma and pancreatic)
classical pathway [2] = system: classical pathway
alternative pathway [3] = system: alternative pathway
[4] = system: complement activation (C3a and C4a); details: normal individuals
alternative pathway [5] = system: alternative pathway; remark: listed apart in the source
classical pathway [6] = system: classical pathway; remark: listed apart in the source

SMILES	complement proteinase target Factor B (Factor B)	inhibition of MASP activity (MASP)	MASP activity (MASP; in EDTA)	inhibition of thrombin (thrombin)	effective toward Factor Xa (Factor Xa)	inhibition of kallikrein (plasma and pancreatic) [1]	effective toward Hageman factor (Hageman factor)	inhibition of complement-mediated hemolysis by the classical pathway (classical pathway [2])	inhibition of complement-mediated hemolysis by the alternative pathway (alternative pathway [3])	complement proteinase target Factor D (Factor D)	inhibition of plasmin (plasmin)	complement proteinase target C1r (C1r)	stabilization of freshly drawn blood samples [4]	complement proteinase target C1s (C1s)	C4a generated upon addition of EDTA (C4a; benzamidine-containing whole blood, EDTA added)	C4a generated in whole blood (C4a; benzamidine added, before EDTA)	block of the alternative pathway (alternative pathway [5])	block of the classical pathway (classical pathway [6])	block of the coagulation pathway (coagulation pathway)
CS(=O)(=O)O.CS(=O)(=O)O.N=C(N)Nc1ccc(C(=O)Oc2ccc3cc(C(=N)N)ccc3c2)cc1 [Futhan, 6-amidino-2-naphthyl p-guanidinobenzoate dimethanesulfonate]	complement proteinase targets	inhibits MASP	no MASP activity is observed	inhibits	sub-micromolar level	inhibits	sub-micromolar level	inhibits	inhibits	complement proteinase targets	inhibits	complement proteinase targets	effectively stabilizes freshly drawn blood samples	complement proteinase targets					
O=C(O)CN(CCN(CC(=O)O)CC(=O)O)CC(=O)O [EDTA, ethylened laminetetraacetic acid]															high levels of C4a are generated				
N=C(N)c1ccccc1 [benzamidine]		does not inhibit MASP activity														no C4a generated	blocks	blocks	blocks
